This assay concerns Pten^L/L mice. Kind of assay: Pharmacological treatment of Pten^L/L mice (preclinical trial, prostate cancer). It is filed as in vivo, mouse. Particulars: Pten^L/L mice, RAD001 10 mg/kg daily. How it is done:
Pten^loxp/loxp and Pb-cre mice where obtained from Jackson Laboratories and Mouse Models of Human Cancers Consortium (MMHCC), respectively, and maintained in the C57BL/6 background. Mice were maintained under specific pathogen-free conditions, and experiments were performed in compliance with institutional guidelines as approved by the Institutional Animal Care and Use Committee of UCSF.
Weight measurements were taken every 3 days to monitor for toxicity. For the 28-day study, mice were imaged via […] at day 0 and day 28 in a 14-T GE MR scanner (GE Healthcare).
Whole mouse prostates were removed from wild-type and Pten^L/L mice, microdissected, and frozen in liquid nitrogen. Frozen tissues were subsequently manually disassociated using a biopulverizer (Biospec) and additionally processed for protein and mRNA analysis as described above.
Prostates and lymph nodes were dissected from mice within 2 hr of the indicated treatment and fixed in 10% formalin overnight at 4° C. Tissues were subsequently dehydrated in ethanol (Sigma) at room temperature, mounted into paraffin blocks, and sectioned at […] Specimens were de-paraffinized and rehydrated using CitriSolv (Fisher) followed by serial ethanol washes. […] Sections were washed in distilled water followed by TBS washes. The sections were then incubated in 5% goat serum, 1% BSA in TBS for 1 hr at room temperature. Various primary antibodies were used, including those specific for keratin 5 (Covance), cytokeratin 8 (Abcam and Covance), YB1 (Abcam), vimentin (Abcam), MTA1 (Cell signaling), CD44 (BD Pharmingen), and the androgen receptor (Epitomics), which were diluted 1:50-1:500 in blocking solution and incubated on sections overnight at 4° C. Specimens were then washed in TBS and incubated with the appropriate Alexa 488 and 594 labeled secondary (Invitrogen) at 1:500 for 2 hr at room temperature, with the exception of YB1 which was incubated with biotinylated anti-rabbit secondary (Vector) followed by incubation with Alexa 594 labeled Streptavidin (Invitrogen). A final set of washes in TBS was completed at room temperature followed by mounting with DAPI Hardset Mounting Medium (Vector Lab). A Zeiss Spinning Disc confocal (Zeiss, CSU-X1) was used to image the sections at 40×-100×. Individual prostate cells were quantified for mean fluorescence intensity (m.f.i.) using the Axiovision (Zeiss, Release 4.8) densitometric tool.
Mouse lymph nodes were processed as described above and stained for CK8 and androgen receptor. Lymph nodes were imaged using a Zeiss AX10 microscope. Metastases were identified and areas were measured using the Axiovision (Zeiss, Release 4.8) measurement tool.
Immunohistochemistry was performed as described above (see “Immunofluorescence”) with the exception that immediately after antigen […] and TBS washes, specimens were incubated in 3% hydrogen peroxide in TBS followed by TBS washes. The following primary antibodies were used: phospho-AKT^S473 (Cell Signaling), phospho-rpS6^S240/244 (Cell Signaling), phospho-4EBP1^T37/46 (Cell Signaling), phospho-histone H3 (Upstate), and cleaved caspase (Cell Signaling). This was followed by TBS washes and incubation with the appropriate biotinylated secondary antibody (Vector Lab) for 30 min at room temperature. An ABC-HRP Kit (Vector Lab) was used to amplify the signal, followed by a brief incubation in hydrogen peroxide. The protein of interest was detected using DAB (Sigma). Specimens were counterstained with haematoxylin (Thermo Scientific), dehydrated with Citrisolv (Fisher), and mounted with Cytoseal XYL (Vector Lab).
Paraffin-embedded prostate specimens were deparaffinized and rehydrated as described above (see “Immunofluorescence”), stained with haematoxylin (Thermo Scientific), and washed with water. This was followed by a brief incubation in differentiation RTU (VWR) and two washes with water followed by two 70% ethanol washes. […]

SMILES strings stand for the structures.

For `CO[C@H]1C[C@@H]2CC[C@@H](C)[C@@](O)(O2)C(=O)C(=O)N2CCCC[C@H]2C(=O)O[C@H]([C@H](C)C[C@@H]2CC[C@@H](OCCO)[C@H](OC)C2)CC(=O)[C@H](C)/C=C(\C)[C@@H](O)[C@@H](OC)C(=O)[C@H](C)C[C@H](C)/C=C/C=C/C=C/1C` [RAD001], the “regression of PIN lesions” value (28 days) is given as “only partial regression”. Further, the “proliferation (phospho-histone H3)” value (ATP site inhibitor of mTOR 1 mg/kg daily) is given as “limited decrease”.

Values taken from US20190136321A1, “USE OF TRANSLATIONAL PROFILING TO IDENTIFY TARGET MOLECULES FOR THERAPEUTIC TREATMENT” (The Regents of The University of California, priority 2013, published 2019).
